The test system of one assay is Hep 3B. The experiment in a line: Cell Titer-Glo proliferation assay, 72 h. It is filed as cell-based. The conditions noted are these: Homo sapiens; Hep3B cells, erlotinib alone, determined beforehand; read-out: concentration to inhibit about 50% proliferation. The procedure: (§1) Two sensitive epithelial cell lines Hep3B (A), JHH-7 (B), one insensitive epithelial cell line JHH-1(C) or one insensitive mesenchymal-like cell line HLF (D) were treated serial dilution of OSI-906 in the presence of Erlotinib for 72 hours, and sensitivity to treatment was measured by proliferation assays.
(§2) Cell lines: Twenty-one HCC cell lines were purchased from either ATCC (HepG2, Hep3B, PLC/PRF/5, SK-Hepl, SNU-182, SNU-387, SNU-398, SNU-423, SNU-449, SNU-475) or Health Science Research Resources Bank (Japan) (HUH-1, HUH-6, HUH-7, HLE, HLF, JHH-1, JHH-2, JHH-4, JHH-5, JHH-6, JHH-7). All the cell lines were maintained in media as described by the vendors. For growth inhibition assays, cells were plated and allowed to proliferate for 24 hours. After 24 hours, cells had reached approximately 15% confluency, at which time serial dilutions of OSI-906 were added and the cells grown for a further 72 hours. Cell viability was assayed using the Cell Titer-Glo reagent (Promega Corp., Madison, Wis.).
(§3) Proliferation Assay. Proliferation was assayed using Cell Titer Glo assays (Promega) and was determined 72 hours following dosing with OSI-906. The basis of the assay is a luminescent quantitation of ATP present in a cell culture plate well. In essence, the greater the number of viable cells in the well, the greater the level of ATP present. The assay utilizes a substrate that binds ATP to produce a luminescent signal, which can be read on a luminometer. Unless otherwise noted, the manufacturer's instructions were followed exactly. Briefly, on Day 1, cells were plated in 120 μl of 10% serum-containing growth media at a density of 4000 cells/well in a white polystyrene 96 well assay plate. On day 2, cells were treated with 15 μl of 10× concentration of the IGF-1R inhibitor (e.g. OSI-906) or DMSO alone for a final well volume of 150 μl. After 72 h incubation with the inhibitor, the cells were assayed. Results were calculated as a fraction of the DMSO controlled cells.

A further assay concerns JHH-1. The experiment in a line: Cell Titer-Glo proliferation assay, 72 h. The conditions noted are these: Homo sapiens, JHH1; JHH-1 cells, erlotinib alone, determined beforehand; read-out: concentration to inhibit about 50% proliferation. Type of assay: cell-based. On the procedure: as §1, §2, §3
For assay [1], the system named is AFP expression in HUH-1, JHH-5 and HepG2 cells. The experiment in a line: AFP expression by RT-PCR after TGFβ treatment. Type of assay: cell-based, human. The conditions noted are these: 10 ng/ml TGFβ for 10 days, HUH-1, JHH-5, HepG2. The procedure:
FIG. 11: TGFβ decreases AFP expression and cell sensitivity to OSI-906. HUH-1, JHH-5 and HepG2 cells were treated with TGFβ and cells were either treated with OSI-906 for proliferation assays (A) or lysed to measure AFP expression by RT-PCR (B).
Taqman Assays: Total RNA was isolated with RNeasy kit (Qiagen) and treated with RNase-free DNase. Reverese transcription was performed with SuperScript III First-Strand Synthesis system (Invitrogen, Carlsbad, Calif.). The Gene Expression Assays were obtained from Applied Biosystems, Foster City, Calif. Quantitation of relative gene expression was conducted as described by the manufacturer using 50 ng of template. In order to determine relative expression across cell lines, amplification of AFP gene was compared to amplification of the gene for GAPDH as an internal standard.
(§4) TGFβ treatment: Cells were grown in medium supplemented with 10 ng/ml TGFβ (EMD Biosciences #616450) for 10 days with replating every 3-4 days. The cells were then lysed for either RT-PCR or CELLTITER-GLO® proliferation assays (Promega, Madison, Wis.).

For assay [2], the system named is ErbB3 in JHH5, HepG2, and HUH1 HCC cells. The experiment in a line: ErbB3 protein expression after TGFβ treatment. It is filed as cell-based, human. The conditions noted are these: data not shown. The procedure: Preparation of Protein Lysates and Western Blotting: Cells were rinsed with PBS and lysed in RIPA buffer (Sigma #R0278) containing protease and phosphatase inhibitor cocktails (Sigma #P2850, P8340, P5726). Cell lysates were cleared by centrifugation and subjected to western blotting. Antibodies included: E-cadherin (Santa Cruz #sc21791), ErbB3 (Santa Cruz #sc285), vimentin (BD Pharmingen #550513), Zebl (Santa Cruz #sc25388).
as §4

`C#Cc1cccc(Nc2ncnc3cc(OCCOC)c(OCCOC)cc23)c1` [Erlotinib, [6,7-bis(2-methoxyethoxy)-4-quinazolin-4-yl]-(3-ethynylphenyl) amine, reference compound]: the IC50 was 3.3 µM with Hep 3B and 0.12 µM with JHH-1.

With TGFβ, in assay [1], the “AFP expression after TGFβ treatment” value is given as “decreased”. In addition, in assay [2], the “expression of the epithelial biomarker protein ErbB3 after TGFβ treatment” value was “decreased”.

The values above are taken from patent publication US20120214830A1, “BIOLOGICAL MARKERS PREDICTIVE OF ANTI-CANCER RESPONSE TO INSULIN-LIKE GROWTH FACTOR-1 RECEPTOR KINASE INHIBITORS IN HEPATOCELLULAR CARCINOMA” (OSI Pharmaceuticals, LLC, priority 2011, published 2012).
